Experimental data published in patent US20100160369A1, “S1P1 Agonists and Methods of Making And Using” (EXELIXIS, INC., priority 2008, published 2010).
Where a name gives a salt, the structure may show the parent alone.

Assays:
[1] = target: T1, S1P1 (Homo sapiens, UniProt P21453); experiment: Tango β-arrestin Recruitment Assay in U2OS cells (Assay 2b); format: cell-based; set-up: linker with TEV protease (N1a) cleavage site (C); conditions: Tango β-arrestin Recruitment Assay, read-out: Assay 2b EC50
Procedure, shortened: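 Agonist EC50 from percent activity relative to 1 μM S1P efficacy control, using background-subtracted 460/530 nm emission ratios. Compounds (max 1 μM, ten 3-fold dilutions) incubated overnight at 37 °C with serum-starved S1P1 U2OS reporter cells, followed by 2 h β-lactamase reagent at room temperature.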
Target sequence in this assay (P21453 whole entry): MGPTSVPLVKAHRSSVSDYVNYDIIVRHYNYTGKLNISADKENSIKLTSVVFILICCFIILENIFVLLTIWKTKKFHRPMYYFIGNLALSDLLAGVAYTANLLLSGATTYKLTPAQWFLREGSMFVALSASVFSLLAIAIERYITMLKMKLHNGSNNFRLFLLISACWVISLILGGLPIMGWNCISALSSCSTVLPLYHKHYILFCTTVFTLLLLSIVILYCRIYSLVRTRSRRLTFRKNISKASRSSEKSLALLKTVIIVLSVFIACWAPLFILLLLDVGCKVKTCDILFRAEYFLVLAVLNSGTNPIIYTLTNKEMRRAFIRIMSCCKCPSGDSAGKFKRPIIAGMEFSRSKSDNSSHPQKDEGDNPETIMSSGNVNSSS
Target sequence in this assay (P32121 whole entry partner): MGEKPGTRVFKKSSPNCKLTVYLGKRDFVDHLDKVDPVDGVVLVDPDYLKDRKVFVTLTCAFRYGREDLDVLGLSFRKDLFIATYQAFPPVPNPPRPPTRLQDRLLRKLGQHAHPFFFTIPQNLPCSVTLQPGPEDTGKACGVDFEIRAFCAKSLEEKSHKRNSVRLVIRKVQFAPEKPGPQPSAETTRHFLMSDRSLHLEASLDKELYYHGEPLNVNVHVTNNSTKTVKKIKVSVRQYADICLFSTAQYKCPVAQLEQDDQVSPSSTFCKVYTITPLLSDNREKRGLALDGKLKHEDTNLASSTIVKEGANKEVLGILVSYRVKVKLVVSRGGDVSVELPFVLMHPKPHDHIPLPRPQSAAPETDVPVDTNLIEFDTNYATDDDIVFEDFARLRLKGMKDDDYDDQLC

[2] = target: T1, S1P1; experiment: Tango β-arrestin Recruitment Assay in HEK293 cells (Assay 2a); format: cell-based; set-up: linker with TEV protease (N1a) cleavage site (C); host or cells: HEK293, transiently transfected; conditions: Tango β-arrestin Recruitment Assay, read-out: Assay 2a EC50
Procedure, shortened: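 Agonist-driven β-arrestin2–TEV recruitment releases tTA to drive luciferase in transiently transfected HEK293 cells. Ten 3-fold dilutions from 10 μM top (1% DMSO), 16–18 h at 37 °C; EC50 fitted to percent activity versus DMSO background and 5 μM S1P efficacy control.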
Target sequence in this assay (P21453 whole entry): as the sequence (P21453 whole entry) above
Target sequence in this assay (P32121 whole entry partner): as the sequence (P32121 whole entry partner) above

[3] = target: T2, hS1P1R (hEdg1) (Homo sapiens, UniProt P21453); experiment: hS1P1R GTPγS Binding Assay (Assay 3a); format: biochemical
T2 construct: purchased Lonza
Experimental: The hS1P1R GTPγS binding assay was carried out at room temperature in 96 well non-binding surface assay plates. The reaction in each well contained 4 μg hS1P1R (hEdg1) membrane protein (Lonza), 30 μM GDP, 0.1 nM [^35S]GTPγS, 0.25% fatty acid free BSA, and serially diluted hS1P1R agonist compound in 200 μL assay buffer (25 mM Tris-HCl PH 7.9, 100 mM NaCl, 3 mM MgCl2, and 0.2 mM EGTA). After one hour of incubation, 0.9 mg of WGA (Wheat Germ Agglutinin) SPA beads in 50 μL of assay buffer was added to each well. The SPA beads were spun down after an additional one hour incubation. The radioactivity of the bound GTPγS was counted by reading the assay plate using a MicroBeta.
Assay 1 is the CNG cAMP Assay as described in Biological Example 1. Assay 2a and 2b are the Tango™ β-arrestin Recruitment Assay in HEK293 and U2OS cells, respectively, as described in Biological Example 2. Assay 3a is the hS1P1R GTPγS Binding Assay as described in Biological Example 3. Assay 3b is the GTP-Eu Binding Assay as described in Biological Example 3. EC50's were measured unless otherwise noted. […] In the table, “nt” means the Compound was not tested and “no” means the compound was tested but had no measurable activity under the assay conditions employed.

[4] = target: T1, S1P1; experiment: CNG cAMP Assay (Assay 1); format: cell-based; set-up: host or cells: HEK293 cells expressing the CNG channel; conditions: read-out: Assay 1 EC50
Procedure, shortened: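 cAMP-gated CNG membrane-potential read-out (350/590 nm, T90/T0 ratio) in S1P1/CNG HEK293 cells after 90 min with compound plus NECA 500 nM, S1P 10 nM (EC95), Ro 20-1724 25 μM. Ten 3-fold points from 10 μM, 1.8% DMSO; percent activity vs NECA-only control gives EC50.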
Target sequence in this assay (P21453 whole entry): as the sequence (P21453 whole entry) above

T2 sequence (P21453 whole entry): as above

SMILES	EC50 [1] [nM]	EC50 [2] [nM]	EC50 [3] [nM]	EC50 [4] [nM]
OC(COc1cc(Cl)c(-c2noc(-c3cn4cc(C(F)(F)F)cc(Cl)c4n3)n2)cc1Cl)C(F)(F)F (centres unmarked) [Entry 77]	≤ 100	≤ 100		
CC(=O)COc1cc(Cl)c(-c2noc(-c3cn4cc(C(F)(F)F)cc(Cl)c4n3)n2)cc1Cl [Example 182]	≤ 100	≤ 100		
OCC(O)COc1cc(Cl)c(-c2noc(-c3cn4cc(I)cc(Cl)c4n3)n2)cc1Cl (centres unmarked) [Example 204, 3-({2,5-dichloro-4-[5-(8-chloro-6-iodoimidazo[1,2-a]pyridin-2-yl)-1,2,4-oxadiazol-3-yl]phenyl}oxy)propane-1,2-diol]		≤ 100	100 to 500	
O=C(O)CCc1c(Cl)cc(-c2nnc(-c3cn4cc(C(F)(F)F)cc(Cl)c4n3)s2)cc1Cl [Example 206, 3-(2,6-dichloro-4-{5-[8-chloro-6-(trifluoromethyl)imidazo[1,2-a]pyridin-2-yl]-1,3,4-thiadiazol-2-yl}phenyl)propanoic acid]		≤ 100	1000 to 5000	
O=C(O)CCc1cc(Cl)c(-c2nnc(-c3cn4cc(I)cc(Cl)c4n3)s2)cc1F [Example 207, 3-{5-chloro-4-[5-(8-chloro-6-iodoimidazo[1,2-a]pyridin-2-yl)-1,3,4-thiadiazol-2-yl]-2-fluorophenyl}propanoic acid]		≤ 100	1000 to 5000	
OCC(O)COc1c(Cl)cc(-c2noc(-c3cn4cc(C(F)(F)F)cc(Cl)c4n3)n2)cc1Cl (centres unmarked) [Example 209, 3-[(2,6-dichloro-4-{5-[8-chloro-6-(trifluoromethyl)imidazo[1,2-a]pyridin-2-yl]-1,2,4-oxadiazol-3-yl}phenyl)oxy]propane-1,2-diol]		≤ 100	≤ 100	
NC(CO)COc1ccc(-c2noc(-c3cn4cc(C(F)(F)F)cc(Cl)c4n3)n2)c(Cl)c1 (centres unmarked) [Example 213, 2-amino-3-[(3-chloro-4-{5-[8-chloro-6-(trifluoromethyl)imidazo[1,2-a]pyridin-2-yl]-1,2,4-oxadiazol-3-yl}phenyl)oxy]propan-1-ol]	≤ 100	≤ 100		≤ 100
OCC(O)COc1ccc(-c2nnc(-c3cn4cc(C(F)(F)F)cc(Cl)c4n3)s2)c(Cl)c1 (centres unmarked) [Example 245, 3-[(3-chloro-4-{5-[8-chloro-6-(trifluoromethyl)imidazo[1,2-a]pyridin-2-yl]-1,3,4-thiadiazol-2-yl}phenyl)oxy]propane-1,2-diol]	100 to 500			≤ 100
Cc1cc(-c2nnc(-c3cn4cc(C(F)(F)F)cc(Cl)c4n3)s2)cc(C)c1OCC(O)CO (centres unmarked) [Example 246, 3-[(4-{5-[8-chloro-6-(trifluoromethyl)imidazo[1,2-a]pyridin-2-yl]-1,3,4-thiadiazol-2-yl}-2,6-dimethylphenyl)oxy]propane-1,2-diol]	≤ 100	≤ 100		≤ 100
OCC(O)COc1cc(Cl)c(-c2nnc(-c3cn4cc(C(F)(F)F)cc(Cl)c4n3)s2)cc1F (centres unmarked) [Example 247, 3-[(5-chloro-4-{5-[8-chloro-6-(trifluoromethyl)imidazo[1,2-a]pyridin-2-yl]-1,3,4-thiadiazol-2-yl}-2-fluorophenyl)oxy]propane-1,2-diol]	100 to 500	≤ 100		≤ 100
CC(Oc1cc(Cl)c(-c2nnc(-c3cn4cc(C(F)(F)F)cc(Cl)c4n3)s2)cc1F)C(=O)O (centres unmarked) [Example 250, 2-[(5-chloro-4-{5-[8-chloro-6-(trifluoromethyl)imidazo[1,2-a]pyridin-2-yl]-1,3,4-thiadiazol-2-yl}-2-fluorophenyl)oxy]propanoic acid]	100 to 500			≤ 100
CC(CO)Oc1cc(Cl)c(-c2nnc(-c3cn4cc(C(F)(F)F)cc(Cl)c4n3)s2)cc1Cl (centres unmarked) [Example 251, 2-[(2,5-dichloro-4-{5-[8-chloro-6-(trifluoromethyl)imidazo[1,2-a]pyridin-2-yl]-1,3,4-thiadiazol-2-yl}phenyl)oxy]propan-1-ol]	≤ 100			≤ 100
NC(CO)COc1cc(Cl)c(-c2noc(-c3cn4cc(C(F)(F)F)cc(Cl)c4n3)n2)cc1Cl (centres unmarked) [Example 303, 2-amino-3-[(2,5-dichloro-4-{5-[8-chloro-6-(trifluoromethyl)imidazo[1,2-a]pyridin-2-yl]-1,2,4-oxadiazol-3-yl}phenyl)oxy]propan-1-ol]	≤ 100	≤ 100		
C[C@@H](O)COc1cc(Cl)c(-c2noc(-c3cn4cc(C(F)(F)F)cc(Br)c4n3)n2)cc1Cl [Example 312, (2R)-1-[(4-{5-[8-bromo-6-(trifluoromethyl)imidazo[1,2-a]pyridin-2-yl]-1,2,4-oxadiazol-3-yl}-2,5-dichlorophenyl)oxy]propan-2-ol]	≤ 100	≤ 100		
C[C@H](O)COc1cc(Cl)c(-c2noc(-c3cn4cc(C(F)(F)F)cc(Br)c4n3)n2)cc1Cl [Example 313, (2S)-1-[(4-{5-[8-bromo-6-(trifluoromethyl)imidazo[1,2-a]pyridin-2-yl]-1,2,4-oxadiazol-3-yl}-2,5-dichlorophenyl)oxy]propan-2-ol]	≤ 100	≤ 100		
OC[C@@H](O)COc1cc(Cl)c(-c2noc(-c3cn4cc(C(F)(F)F)cc(Br)c4n3)n2)cc1Cl [Example 317, (2R)-3-[(4-{5-[8-bromo-6-(trifluoromethyl)imidazo[1,2-a]pyridin-2-yl]-1,2,4-oxadiazol-3-yl}-2,5-dichlorophenyl)oxy]propane-1,2-diol]	≤ 100	≤ 100		
NC(CO)COc1cc(Cl)c(-c2nnc(-c3cn4cc(C(F)(F)F)cc(Cl)c4n3)s2)cc1F (centres unmarked) [Example 321, 2-amino-3-[(5-chloro-4-{5-[8-chloro-6-(trifluoromethyl)imidazo[1,2-a]pyridin-2-yl]-1,3,4-thiadiazol-2-yl}-2-fluorophenyl)oxy]propan-1-ol]	≤ 100	≤ 100		
O=P(O)(O)OC[C@H](O)COc1cc(Cl)c(-c2noc(-c3cn4cc(C(F)(F)F)cc(Cl)c4n3)n2)cc1Cl [Example 322, (2R)-3-[(2,5-dichloro-4-{5-[8-chloro-6-(trifluoromethyl)imidazo[1,2-a]pyridin-2-yl]-1,2,4-oxadiazol-3-yl}phenyl)oxy]-2-hydroxypropyl dihydrogen phosphate]	≤ 100	≤ 100		
C[C@H](COc1cc(Cl)c(-c2noc(-c3cn4cc(C(F)(F)F)cc(Br)c4n3)n2)cc1Cl)OP(=O)(O)O [Example 324, (1R)-2-[(4-{5-[8-bromo-6-(trifluoromethyl)imidazo[1,2-a]pyridin-2-yl]-1,2,4-oxadiazol-3-yl}-2,5-dichlorophenyl)oxy]-1-methylethyl dihydrogen phosphate]	≤ 100	≤ 100		
C[C@@H](COc1cc(Cl)c(-c2noc(-c3cn4cc(C(F)(F)F)cc(Cl)c4n3)n2)cc1Cl)OS(=O)(=O)O [Example 326, (1S)-2-[(2,5-dichloro-4-{5-[8-chloro-6-(trifluoromethyl)imidazo[1,2-a]pyridin-2-yl]-1,2,4-oxadiazol-3-yl}phenyl)oxy]-1-methylethyl hydrogen sulfate]	≤ 100	≤ 100		
CC(O)(CO)COc1cc(Cl)c(-c2noc(-c3cn4cc(C(F)(F)F)cc(Cl)c4n3)n2)cc1Cl (centres unmarked) [Example 330, 3-[(2,5-dichloro-4-{5-[8-chloro-6-(trifluoromethyl)imidazo[1,2-a]pyridin-2-yl]-1,2,4-oxadiazol-3-yl}phenyl)oxy]-2-methylpropane-1,2-diol]	≤ 100	≤ 100		
N[C@H](CO)COc1cc(Cl)c(-c2nnc(-c3cn4cc(C(F)(F)F)cc(Cl)c4n3)s2)cc1F [Example 334, (2R)-2-Amino-3-[(5-chloro-4-{5-[8-chloro-6-(trifluoromethyl)imidazo[1,2-a]pyridin-2-yl]-1,3,4-thiazol-2-yl}-2-fluorophenyl)oxy]propan-1-ol]	≤ 100	≤ 100		
